Experimental data reported in patent US4068074A, “Cephalosporin derivatives having at the 3-position of the cephem ring a heterocyclic thiomethyl group with a carboxy or sulfo group and at the 7-position of the cephem ring an α-heterocylic acylaminophenyl-acetamide group” (priority 1974, dated 1978).
Values after ≈ are worked out from the molar mass of the structure shown. Like-named read-outs stand apart in the source and are kept apart here.

Legend:
Assay type in all cases: cell-based
[1] = test system: Bacillus megatherium 10778; assay: MIC against bacteria (Table I), strain (13); settings: (13) Bacillus megatherium 10778; read-out: MIC
Text: (§1) Now, for illustrating the excellent pharmacological effects of the compounds of this invention, the values of MIC (γ/ml.) of the compounds against various bacteria are shown in Table 1, in which the compounds of this invention used are shown by example numbers.

[2] = test system: Staphylococcus aureus 209P; assay: MIC against bacteria (Table I), strain (16)
Text: as §1
(16) Staphylococcus aureus 209P

[3] = test system: Psuedomonas ovalis IMA 1002; assay: MIC against bacteria (Table I), strain (6); settings: (6) Psuedomonas ovalis IMA 1002; read-out: MIC
Text: as §1
(6) Psuedomonas ovalis IMA 1002

[4] = test system: Escherichia coli kauffmann 0-1; assay: MIC against bacteria (Table I), strain (7)
Text: as §1
(7) Escherichia coli kauffmann 0-1

[5] = test system: Staphylococcus Shimanishi; assay: MIC against bacteria (Table I), strain (17)
Text: as §1
(17) Staphylococcus Shimanishi

[6] = test system: Shigella flexneri 2a 1675; assay: MIC against bacteria (Table I), strain (11); settings: 2A1675; (11) Shigella flexneri 2a 1675; read-out: MIC
Text: as §1

[7] = test system: Salmonella typhi H901 W; assay: MIC against bacteria (Table I), strain (9); settings: Salmonella enterica, TYPHI
Text: as §1
(9) Salmonella typhi H901 W

[8] = test system: Proteus vulgaris 0X 19US; assay: MIC against bacteria (Table I), strain (2); settings: 0X19US
Text: as §1
(2) Proteus vulgaris 0X 19US

[9] = test system: Proteus mirabilis IXM OM-19; assay: MIC against bacteria (Table I), strain (3); settings: IXMOM19; (3) Proteus mirabilis IXM OM-19; read-out: MIC
Text: as §1
(3) Proteus mirabilis IXM OM-19

[10] = test system: Micrococcus flavus ATCC 10240; assay: MIC against bacteria (Table I), strain (15); settings: ATCC10240
Text: as §1
(15) Micrococcus flavus ATCC 10240

[11] = test system: Staphylococcus Onuma; assay: MIC against bacteria (Table I), strain (18)
Text: as §1
(18) Staphylococcus Onuma

[12] = test system: Salmonella enteritidis; assay: MIC against bacteria (Table I), strain (10); settings: Salmonella enterica; (10) Salmonella enteritidis; read-out: MIC
Text: as §1
(10) Salmonella enteritidis

[13] = test system: Pseudomonas aeruginosa 99 (Gentamycin resistant); assay: MIC against bacteria (Table I), strain (5)
Text: as §1
(5) Pseudomonas aeruginosa 99 (Gentamycin resistant)

[14] = test system: Shigella sonnei II 37148; assay: MIC against bacteria (Table I), strain (12); settings: II37148; (12) Shigella sonnei II 37148; read-out: MIC
Text: as §1

[15] = test system: Bacillus subtilis ATCC 6633; assay: MIC against bacteria (Table I), strain (14); settings: ATCC6633; (14) Bacillus subtilis ATCC 6633; read-out: MIC
Text: as §1
(14) Bacillus subtilis ATCC 6633

[16] = test system: Klebsiella pneumoniae ATCC 10031; assay: MIC against bacteria (Table I), strain (8); settings: ATCC10031
Text: as §1
(8) Klebsiella pneumoniae ATCC 10031

[17] = (2) Proteus vulgaris 0X 19US, read-out: MIC
[18] = (5) Pseudomonas aeruginosa 99 (Gentamycin resistant), read-out: MIC
[19] = (17) Staphylococcus Shimanishi, read-out: MIC
[20] = (15) Micrococcus flavus ATCC 10240, read-out: MIC
[21] = (18) Staphylococcus Onuma, read-out: MIC
[22] = (8) Klebsiella pneumoniae ATCC 10031, read-out: MIC
[23] = (16) Staphylococcus aureus 209P, read-out: MIC

Compound | MIC [1] [µg/mL] | MIC ([2]; Staphylococcus aureus, 209P) [µg/mL] | MIC [3] [µg/mL] | MIC ([4]; Escherichia coli) [µg/mL] | MIC ([5]; Staphylococcus) [µg/mL] | MIC [6] [µg/mL] | MIC [7] [µg/mL] | MIC [8, 17] [µg/mL] | MIC [9] [µg/mL] | MIC ([10]; Micrococcus flavus) [µg/mL] | MIC ([11]; Staphylococcus) [µg/mL] | MIC [12] [µg/mL] | MIC [13, 18] [µg/mL] | MIC [14] [µg/mL] | MIC [15] [µg/mL] | MIC ([16]; Klebsiella pneumoniae) [µg/mL] | MIC [5, 19] [µg/mL] | MIC [10, 20] [µg/mL] | MIC [11, 21] [µg/mL] | MIC [16, 22] [µg/mL] | further results
Cc1nc(SCC(=O)O)cc(SCC2=C(C(=O)O)N3C(=O)[C@@H](NC(=O)[C@H](NC(=O)c4cnccc4O)c4ccccc4)[C@H]3SC2)n1 [Example 17, 7-[D-α-(4-hydroxynicotinoylamido)-α-phenylacetamido]-3-(6-carboxymethylthio-2-methylpyrimidin-4-yl)thiomethyl-Δ^3-cephem-4-carboxylic acid] | 0.39 (≈ 0.571 µM) | 0.19 (≈ 0.278 µM) | 25 (≈ 36.6 µM) | 6.25 (≈ 9.15 µM) | 6.25 (≈ 9.15 µM) | 3.13 (≈ 4.58 µM) | 3.13 (≈ 4.58 µM) | 1.56 (≈ 2.28 µM) | 0.19 (≈ 0.278 µM) | 6.25 (≈ 9.15 µM) | 6.25 (≈ 9.15 µM) | 0.19 (≈ 0.278 µM) | 50 (≈ 73.2 µM) | 6.25 (≈ 9.15 µM) | 0.39 (≈ 0.571 µM) | 6.25 (≈ 9.15 µM) |  |  |  |  | 
O=C(O)Cn1nc(SCC2=C(C(=O)O)N3C(=O)[C@@H](NC(=O)[C@H](NC(=O)c4cnccc4O)c4ccccc4)[C@H]3SC2)ccc1=O [Example 18, 7-[D-α-(4-hydroxynicotinoylamido)-α-phenylacetamido]-3-(1-carboxymethyl-6(1H)-pyridazinon-3-yl)thiomethyl-Δ^3-cephem-4-carboxylic acid] | 0.39 (≈ 0.598 µM) | 1.56 (≈ 2.39 µM) | 25 (≈ 38.3 µM) | 12.5 (≈ 19.2 µM) |  | 12.5 (≈ 19.2 µM) | 3.13 (≈ 4.8 µM) | 1.56 (≈ 2.39 µM) | 0.78 (≈ 1.2 µM) |  |  | 1.56 (≈ 2.39 µM) | 25 (≈ 38.3 µM) | 25 (≈ 38.3 µM) | 0.39 (≈ 0.598 µM) |  | 6.25 (≈ 9.58 µM) | 25 (≈ 38.3 µM) | 6.25 (≈ 9.58 µM) | 25 (≈ 38.3 µM) | 
Nc1nc(SCC(=O)O)cc(SCC2=C(C(=O)O)N3C(=O)[C@@H](NC(=O)[C@H](NC(=O)c4cnccc4O)c4ccccc4)[C@H]3SC2)n1 [Example 19, 7-[D-α-(4-hydroxynicotinoylamido)-α-phenylacetamido]-3-(2-amino-4-carboxymethylthiopyrimidin-6-yl)thiomethyl-Δ^3-cephem-4-carboxylic acid] | 0.78 (≈ 1.14 µM) | 3.13 (≈ 4.58 µM) | 50 (≈ 73.1 µM) |  |  | 6.25 (≈ 9.14 µM) | 3.13 (≈ 4.58 µM) |  | 0.39 (≈ 0.57 µM) |  |  | 1.56 (≈ 2.28 µM) |  | 25 (≈ 36.6 µM) | 0.78 (≈ 1.14 µM) | 25 (≈ 36.6 µM) | 12.5 (≈ 18.3 µM) | 12.5 (≈ 18.3 µM) | 12.5 (≈ 18.3 µM) |  | MIC ([4]; (7) Escherichia coli kauffmann 0-1, read-out: MIC): 12.5 µg/mL (≈ 18.3 µM); MIC ([8]; Proteus vulgaris): 6.25 µg/mL (≈ 9.14 µM)
Cc1ncc(C(=O)N[C@@H](C(=O)N[C@@H]2C(=O)N3C(C(=O)O)=C(CSc4nnc(SCC(=O)O)s4)CS[C@H]23)c2ccccc2)c(O)n1 [Example 20, 7-[D-α-(4-hydroxy-2-methylpyrimidin-5-ylcarboxamido)-α-phenylacetamido]-3-(5-carboxymethylthio-1,3,4-thiadiazol-2-yl)thiomethyl-Δ^3-cephem-4-carboxylic acid] | 1.56 (≈ 2.26 µM) |  | 50 (≈ 72.5 µM) | 12.5 (≈ 18.1 µM) | 12.5 (≈ 18.1 µM) | 6.25 (≈ 9.06 µM) | 12.5 (≈ 18.1 µM) | < 0.09 | 0.39 (≈ 0.565 µM) | 6.25 (≈ 9.06 µM) | 12.5 (≈ 18.1 µM) | 3.13 (≈ 4.54 µM) | 25 (≈ 36.2 µM) | 12.5 (≈ 18.1 µM) | 3.13 (≈ 4.54 µM) |  |  |  |  | 25 (≈ 36.2 µM) | MIC [2, 23]: 3.13 µg/mL (≈ 4.54 µM)
COc1cc(O)ncc1C(=O)N[C@@H](C(=O)N[C@@H]1C(=O)N2C(C(=O)O)=C(CSc3nnc(SCC(=O)O)s3)CS[C@H]12)c1ccccc1 [Example 28, 7-[D-α-(6-hydroxy-4-methoxynicotinoylamido)-α-phenylacetamido]-3-(5-carboxymethylthio-1,3,4-thiadiazol-2-yl)thiomethyl-Δ^3-cephem-4-carboxylic acid] | 6.25 (≈ 8.87 µM) |  | 50 (≈ 70.9 µM) | 25 (≈ 35.5 µM) |  | 25 (≈ 35.5 µM) | 50 (≈ 70.9 µM) | 12.5 (≈ 17.7 µM) | 6.25 (≈ 8.87 µM) |  |  | 12.5 (≈ 17.7 µM) |  | 25 (≈ 35.5 µM) | 12.5 (≈ 17.7 µM) |  | 100 (≈ 142 µM) | 12.5 (≈ 17.7 µM) | 100 (≈ 142 µM) | 50 (≈ 70.9 µM) | MIC [2, 23]: 12.5 µg/mL (≈ 17.7 µM); MIC ([13]; Pseudomonas aeruginosa): 25 µg/mL (≈ 35.5 µM)
